# Data published in article PMC2395260 (Genome Biology, 2008).
# Read-outs that look alike come from different tables or passages of the source.
# How the values were obtained:
# [1] = test system: HCV subgenomic replicon (genotype 1b) harboring the V36G mutant in Huh-7.5 cells; test: Two-day HCV replicon assay, V36G mutant; format: cell-based, hepatitis C virus genotype 1b; conditions: for IC50: Hepatitis C virus, Huh7.5, 48 h, read-out: IC50 (HCV RNA level in replicon cells reduced by 50%); for viral suppression in V36G mutant replicon assay in comparison to wild-type replicon assay: V36G versus wild-type replicon, genotype 1b, 48 h
# Experimental: Only the SCH 503034 inhibitor is lacking the cyclopropyl group (Figure 1). We used a wild-type HCV replicon assay (genotype 1b) and an assay harboring the V36G mutant for in vitro testing. Detailed information on experimental procedures is given in Materials and methods.
# SCH 503034 was synthesized by Schering-Plough Corporation (Kenilworth, NJ, USA), dissolved in dimethyl sulfoxide as a 19 mM solution. Both compounds were stored at 4°C.
# The plasmid pFKI389neo/NS3-3'/ET contains HCV subgenomic replicon sequences derived from HCV genotype 1b and an upstream T7 promoter for in vitro RNA synthesis. The point mutation was generated with the QuikChange II XL Site-Directed Mutagenesis Kit (Stratagene, La Jolla, CA, USA). The plasmid was linearized with ScaI and purified by phenol chloroform extraction. The linearized and purified plasmid was transcribed by using a T7 RNA polymerase (Promega, Madison, WI, USA) according to the manufacturer's instructions. All of the plasmids and RNAs were checked for purity and integrity by standard procedures.
# Huh-7.5 cells were cultured in Dulbecco's modified Eagle's medium (DMEM; Invitrogen, Carlsbad, CA, USA) containing 10% fetal bovine serum (FBS; PAA Laboratories GmbH, Pasching, Germany) and 2 mM L-glutamine. The cells were transfected with an in vitro-transcribed subgenomic HCV replicon RNA. The wild-type sequence was identical to that of the pFKI389neo/NS3-3'/ET replicon. Stable cells containing the self-replicating HCV replicon were selected and maintained in the presence of 750 μg of G418 (Invitrogen) per ml and were used for HCV replicon assays.
# HCV replicon cells were plated in a 6-well plate at a density of 2 × 10^5 cells per well in DMEM with 10% FBS. On the following day (24 h later), the culture medium was replaced with DMEM containing either no compound as a control or compounds serially diluted in the presence of 10% FBS and 750 μg/ml G418. After the cells were incubated with the compounds for 48 h, the intracellular RNA was extracted with an RNeasy kit (Qiagen, Valencia, CA, USA). The level of HCV RNA was determined by a real-time quantitative reverse transcription-PCR (RT-PCR) assay (Taqman) with a pair of HCV-specific primers (5'-[…]-3' and 5'-[…]-3'), an HCV-specific probe (5'-6FAM-[…] XT-PH-3), and an ABI Prism 7000 sequence detection system (Applied Biosystems, Foster City, CA, USA).
# HCV genotype 1 = conditions: phase 1b clinical trial, after treatment duration of 24 hours; cited from earlier work
# [2] = test system: NS3-4A protease T54S mutant; conditions: cited from earlier work
# [3] = test system: NS3-4A protease R155G/I/K/L/M/S/T mutants; conditions: cited from earlier work
# [4] = test system: NS3-4A protease T54A mutant; conditions: cited from earlier work
# [5] = test system: NS3-4A protease A156I/T/V mutants; conditions: range over A156I/T/V mutants; cited from earlier work
# [6] = test system: NS3-4A protease A156S mutant; conditions: cited from earlier work
# [7] = test system: wild-type NS3-4A protease, HCV genotype 1a (HCV-H); conditions: HCV genotype 1a reference strain HCV-H; cited from earlier work
# [8] = test system: NS3-4A protease V36A/G/L/M mutants; conditions: cited from earlier work
Compound,IC50 [1] [nM],viral suppression in V36G mutant replicon assay in comparison to wild-type replicon assay [1],HCV RNA decline (HCV genotype 1),IC50 [2] [nM],"IC50 ([3]; R155G/I/K/L/M/S/T mutants, read-out: IC50 mean) [nM]","IC50 ([3]; range over R155G/I/K/L/M/S/T mutants, read-out: IC50 range) [nM]",IC50 [4] [nM],IC50 [5] [nM],IC50 [6] [nM],IC50 [7] [nM],"IC50 ([8]; V36A/G/L/M mutants, read-out: IC50 mean) [nM]","IC50 ([8]; range over V36A/G/L/M mutants, read-out: IC50 range) [nM]"
"CC(C)(C)NC(=O)N[C@H](C(=O)N1C[C@H]2[C@@H]([C@H]1C(=O)NC(CC1CCC1)C(=O)C(N)=O)C2(C)C)C(C)(C)C (some centres unmarked) [SCH 503034, boceprevir]",< 5000,nearly equally effective,,,,,,,,,,
"CCC[C@H](NC(=O)[C@@H]1[C@H]2CCC[C@H]2CN1C(=O)[C@@H](NC(=O)[C@@H](NC(=O)c1cnccn1)C1CCCCC1)C(C)(C)C)C(=O)C(=O)NC1CC1 [VX-950, telaprevir]",~5000,considerably delayed,above 3 log,120,538,275 to 1050,749,12500 to 50000,1400,70,226,110 to 444
